Here are results for ten compounds from article PMC12188386, “Selective CBP/EP300 Bromodomain Inhibitors: Novel Epigenetic Tools to Counter TNF-α-Driven Inflammation” (JACS Au, 2025).

Usually IC50 stands for the concentration that inhibits the measured activity by half.

≈ marks a conversion by molar mass, not a printed value. Where two headings read alike, the source gives them in different places.

Series [1] has as its system MRC5 cells. Kind of series: viability assay (resazurin). In kind it is cell-based. The following applies: three-day treatment, concentration resulting in 70 % viability. The protocol: MRC5 (2x10^3 cells/well) or THP-1 (8x10^3 cells/well) cells were plated onto 96 well plates and treated with compounds at a final DMSO concentration of 0.5 % (MRC5) or 0.1 % (THP-1).
After 3 days of treatment, resazurin (Acros Organics) was added at a final concentration of 86 μ and incu ated for 2h15 (MRC5) or 3 h (THP-1). Fluorescence (ex. 560 nm, em. 590 nm) was read using a SpectraMax M5 (Molecular devices). GI30 values were calculated as the compound concentration resulting in 70 % viability compared to DMSO treated controls using a nonlinear regression fit using GraphPad Prism with the following equation: (Y=Bottom + (100-Bottom)/(1+(IC50/X)^HillSlope)). […]
After 1.5 h, mice were injected with 10 µL of the prepared CAPTISOL […]
foodpad and also intraperitoneally (for i.p. injection, the 10 µL of CAPTISOL solution was diluted to a final volume of 100 µL using PBS). Organs were collected 5 h after TNF-α […]
LEGENDPlexTM assays (Mouse Pro-inflammatory Chemokine Panel and Mouse Inflammation Panel; Biolegend) were performed to monitor cytokine/chemokine expression. Briefly, popliteal LNs were collected and carefully disrupted in […] ice-cold phosphate buffer, minimizing cell rupture. The suspension was centrifuged at 1,500 rpm for 5 min, and the […]
For orientation: Resazurin is reduced to fluorescent resorufin, in cell work by metabolically active cells.

The subject of series [2] is TNF-α-induced IL-8 secretion from THP-1 cells. Kind of series: cytokine protein measurement (LEGENDPlex). In kind it is cell-based, human. To be noted: 10 ng/mL TNF-α, 1 μM compound. The procedure:
For cytokine expression determination, 5x10^5 THP-1 cells were plated on 12 well plates the day prior to treatment with 10 ng/mL recombinant human TNF -α (aa 77-233) protein (R&D systems, 10291 -TA) and compounds at a final concentration of 0.1 % DMSO. In all cases, total […]
Cytokine protein measurements
THP-1 cells were plated and treated as for the quantitative RT -PCR, then the cell culture medium was harvested by pelleting the cells (300g, 3min) and taking the supernatant .
Cytokine protein concentrations were determined using the LEGENDPlexTM Human Inflammation Panel 1 (BioLegend) assay with 25 µL of culture medium following the manufacturer’s instructi ns. amp es were ana zed f w c t metr n an rtessa Biosciences), and data was analyzed using LEGENDPlex software (BioLegend).

The test system of series [3] is TNF-α-induced cytokine expression in THP-1 cells. Nature of the series: cytokine mRNA expression by RT-qPCR. The series is classed as cell-based, human. To be noted: 1 h co-treatment of THP-1 cells with 10 ng/mL TNF-α and 1 μM compound. The protocol: For cytokine expression determination, 5x10^5 THP-1 cells were plated on 12 well plates the day prior to treatment with 10 ng/mL recombinant human TNF -α (aa 77-233) protein (R&D systems, 10291 -TA) and compounds at a final concentration of 0.1 % DMSO. In all cases, total
(§1) RNA was extracted using the NucleoSpin® RNA kit (Machery -Nagel) and used for cDNA synthesis with the High -Capacity cDNA Reverse Transcription kit (Applied Biosystems). RT-qPCR reactions were performed using PowerSYBR™ green PCR Master Mix (Applied Biosystems) and a LightCycler® 480 (Roche). cDNA was denatured for 10 min at 95 °C followed by 40 cycles of 15 s at 95 °C and 1 min at 60 °C. Cp values were determined as the maximum of the second derivative and target gene expression was compared to that of hprt from the same sample using the 2-ΔCp method. Gene expression was then normalized to the average of the control samples from the same day, or all biological replicates. […]

Series [4] relates to BRD4(1)-BRD. To be noted: cited from earlier work.
Series [5] relates to CBP-BRD. To be noted: TR-FRET, read-out: Affinity to CBP-BRD, IC50, cited from earlier work. A general note: Time-resolved FRET reads energy transfer from a long-lived donor to a nearby acceptor.
Series [6] can be described thus: kinetic solubility. In kind it is physicochemical. To be noted: PBS buffer, aqueous buffer, kinetic from dmso stock, PBS pH 7.4, 37°C, ± st. dev. between technical replicates, read-out: Kin. Sol. The procedure: Starting from an initial concentration of 100, 50 or 20 µM, a 2-fold serial dilution of the compound (10 mM stock in DMSO) was prepared in a mixture of ACN/Buffer (PBS, pH = 7.4) 2:8, with 1% DMSO. 350 µL was transferred to a 96-Well Plate (Greiner, UV-star) then UV absorption (240-400 nm, 10 nm steps) was measured. The absorption was blank-corrected and plotted against concentration. The wavelength (λ) providing the best fitting straight line […]
was used as the calibration curve. To obtain saturated solutions of the compounds of interest, in duplicates 4.4 µL of a 10 or 5 mM stock in DMSO was added to 436 µL Buffer (PBS, pH = 7.4), to give a final concentration of 100 or 50 µM. Samples were incubated on a shaker (500 rpm) at 37°C for 90 minutes and then filtered (Millex-GV 13 mm, 0.22 µm). 304 µL of the filtrate was mixed with 76 µL of acetonitrile on a dilution plate, from which 350 µL was transferred to a UV-plate and UV-absorption was read using a SpectraMax M5 (Molecular devices). The absorbance was blank-corrected and compared to the calibration curve to […]
solubility. The wavelengths used for the calibration curve are available in Table S4.
Based on the known density of 12.5 % CAPTISOL® solution (d = 1.05755 g/mL at 25 °C), the precise weight of the resulting solution and so the required amount of water by weight was calculated. The water was added portion wise with agitation, vortexing and sonication cycles in between additions. The saturated solutions were then filtered (Millex-GV 13 mm, 0.22 µm). In duplicates, aliquots of the filtrates were taken and diluted with blank 12.5 % CAPTISOL® water solution in either a 1:14 (higher sol. compounds) or 1:7 (lower sol. compounds) ratio, 350 µL was transferred to a 96-Well Plate (Greiner, UV-star) then UV absorption (240-400 nm, 10 nm steps) was measured using a SpectraMax M5 (Molecular devices). The absorption was blank-corrected, compared to the calibration curve obtained during the solubility measurement method above and finally corrected for the dilution ratio to obtain the compound concentration in the saturated 12.5 % CAPTISOL® solution. The calculated concentrations are available in Table S4.
BROMOscan™ assays (provided by Eurofins DiscoverX, US)1,2 […]
coli host derived from the BL21 strain. E. coli were grown to log-phase and infected with T7 phage from a frozen stock (multiplicity of infection = 0.4) and incubated with shaking at 32°C until lysis (90-150 minutes). The lysates were centrifuged (5,000 x g) and filtered (0.2µm) to remove cell debris. Streptavidin-coated magnetic beads were treated with biotinylated small molecule or acetylated peptide ligands for 30 minutes at room temperature to generate affinity resins for bromodomain assays. The liganded beads were blocked with excess biotin and washed with blocking buffer (SeaBlock (Pierce), 1 % BSA, 0.05 % Tween 20, 1 mM DTT) to remove unbound ligand and to reduce non specific phage binding. Binding reactions were assembled by combining bromodomains, liganded affinity beads, and test compounds (see […]
Sodium azide, 7.4 mM DTT). All reactions were performed in polypropylene 384-well plates in a final volume of 0.02 mL. The assay plates were incubated at room temperature with […]
20). The beads were then resuspended in elution buffer (1x PBS, 0.05% Tween 20, 2 µM non-

Series [7] concerns myc expression in LP1 cells. Nature of the series: myc mRNA expression by RT-qPCR. The series is classed as cell-based. The following applies: 4 h treatment of LP1 cells with 1 μM compound. The procedure:
For myc expression, 1x10^6 LP1 cells were plated the day prior to a 4 h treatment with compounds at a final DMSO concentration of 0.1 %. […]
In all cases, total
as §1
(In general: In qPCR the cycle at which signal appears reflects the starting amount.)

The target in series [8] is T1, CBP-BRD (ePL-CBP-BRD in HEK293T cells) (Homo sapiens, UniProt Q92793).
T1 construct: (residues 1083-1197) was cloned into the pICP-ePL-C vector; expressed in transfected cells; host or cells: HEK293T, transient transfection (vector pICP-ePL-C, DiscoverX 94-4007S)
T1 sequence (Q92793 1083-1197): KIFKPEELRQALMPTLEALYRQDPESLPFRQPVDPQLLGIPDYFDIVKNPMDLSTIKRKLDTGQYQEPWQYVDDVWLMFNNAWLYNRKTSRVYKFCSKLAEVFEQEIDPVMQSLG
Kind of series: CBP-BRD InCELL Pulse cellular target engagement. The series is classed as cell-based. The following applies: 1 h compound treatment of HEK293T cells transiently transfected with ePL-CBP-BRD. The protocol: The CBP-BRD (residues 1083-1197) was cloned into the pICP-ePL-C vector (DiscoverX, 94-4007S) between the EcoRI and XhoI restriction sites using the hexahistidine-CREBBP plasmid as a template. 5x10^5 HEK293T cells were plated on a 6 well plate the day prior to transfection with 1.5 μg ePL-CBP-BRD plasmid using 5 μl FugeneHD (Promega E2311) in 500 μl optiMEM® (Gibco, 31985062) . Proteins were allowed to express for 20 h before cells were trypsinized, washed and resuspended in low -serum medium (DMEM with 5 % FBS). Compounds were serially diluted in DMSO at 100x, pre-diluted to 5x in complete medium (DMEM with 10 % FBS and 1 % P/S), then added to a suspension of 5x10^3 cells, giving a final DMSO concentration of 1 %. Treated cells were incubated for 1 h at 37 °C in an incubator, followed by a heat shock for 3 min at 45 °C and recovery for 3 min at 22 °C using a thermocycler with a ramp rate of 1 °C/s (SimpliAmp, Thermo Fisher). Stab ilized ePL tag was quantified using the InCELL detecti n Kit isc verX as per the manufacturer’s pr t c usin the -10 working detection solution and a 2 h incubation before reading luminescence with a SpectraMax M5 plate reader (Molecular devices). […]

The compound `CNC(=O)Nc1ccc2c(c1)CC[C@@]21OC(=O)N(CC(=O)N(Cc2ccc(F)cc2)[C@@H](C)C(F)(F)F)C1=O` [A485] registered a GI30 in series [1] of 1200 nM. For the same compound, the “TNF-α-induced IL-8 protein secretion” value in series [2] is reported as “significantly reducing its TNF-α-induced secretion”. The “TNF-α-induced expression of il1β, il8, mcp-1 and tnf-α (mRNA)” value in series [3] was “significantly reduced the TNF-α-induced expression of all four tested genes”.
Take `C[C@@H]1CC(=O)Nc2cccc(-c3ccc4c(c3)c(-c3cnn(C)c3)nn4C)c2N1` [CPI-637]: in series [4] (ref Taylor et al., 2016), the “Sel. over BRD4(1)-BRD” value is listed as 367 fold. In addition, the IC50 in series [5] (ref Taylor et al., 2016) was 30 nM.
As to `Cc1cc2c(NC(=O)c3cc(NC(=O)c4ccco4)cc(-c4nn(C)cc4Cl)c3)cccc2nn1` [Compound 3], the solubility kinetic at 90 min in series [6] was determined as 9.5 ± 0.4 µM (≈ 4.63 µg/mL).
With `Cc1cc2c(NC(=O)c3cc(NC(=O)c4ccco4)cc(-c4c(C)n[nH]c4C)c3)cccc2nn1` [Compound 4], in series [6], the solubility kinetic at 90 min turned out to be 6 ± 1 µM (≈ 2.8 µg/mL).
With `Cc1cc2c(NC(=O)c3cc(NC(=O)[C@@H]4CCCO4)cc(-c4ccn(C)n4)c3)cccc2nn1` [Compound 6], the solubility kinetic at 90 min in series [6] was 71 ± 0.7 µM (≈ 32.4 µg/mL). Also, the “myc mRNA expression” value in series [7] is given as “significantly decreased the expression level of myc”. The “cellular binding to CBP-BRD (InCELL Pulse)” value in series [8] is on record as “able to engage the target very similarly”.
With `Cc1cc2c(NC(=O)c3cc(NC(=O)C4COC4)cc(-c4ccn(C)n4)c3)cccc2nn1` [Compound 7], the solubility kinetic at 90 min in series [6] is 82.6 ± 0.7 µM (≈ 36.5 µg/mL).
Regarding `Cc1cc2c(NC(=O)c3cc(NC(=O)c4ccc(CN5CCN(C)CC5)o4)cc(-c4ccn(C)n4)c3)cccc2nn1` [Compound 8], the solubility kinetic at 90 min in series [6] turned out to be 69.9 ± 2.3 µM (≈ 39.5 µg/mL).
For `CNC(=O)N1CCc2c(c(N3CCCc4cc(-c5cnn(C)c5)c(C(F)F)cc43)nn2C2CCOCC2)C1` [GNE-781], in series [4] (ref Romero et al., 2017), the “Sel. over BRD4(1)-BRD” value is recorded as 5425 fold. Besides, in series [5] (ref Romero et al., 2017), the IC50 was 0.9 nM.
Take `COc1ccc(CCc2nc3cc(-c4c(C)noc4C)ccc3n2C[C@H](C)N2CCOCC2)cc1Cl` [SGC-CBP30]: the “Sel. over BRD4(1)-BRD” value in series [4] (ref Hay et al., 2014) is reported as 40 fold.
With `COc1ccc(CCc2nc3cc(-c4c(C)noc4C)ccn3c2NC2CCCCC2)cc1Cl` [UMB298], in series [4] (ref Muthengi et al., 2021), the “Sel. over BRD4(1)-BRD” value is 72 fold.
